Experimental data as given in patent publication US12152020B2, “Pesticidally active azole-amide compounds” (SYNGENTA PARTICIPATIONS AG, priority 2018, dated 2024).

Key:
Format in all cases: in vivo
[1] = system: Diabrotica balteata (Corn Root Worm); assay: Example B1: Diabrotica balteata, maize sprouts sprayed, L2 larvae; details: 96 h, application rate of 200 ppm, 4 days after infestation, in comparison to untreated samples, read-out: effect in at least one of the two categories (mortality or growth inhibition)
Description: Example B1: Diabrotica balteata (Corn Root Worm)
Maize sprouts placed onto an agar layer in 24-well microtiter plates were treated with aqueous test solutions prepared from 10′000 ppm DMSO stock solutions by spraying. After drying, the plates were infested with L2 larvae (6 to 10 per well). The samples were assessed for mortality and growth inhibition in comparison to untreated samples 4 days after infestation.
The following compounds gave an effect of at least 80% in at least one of the two categories (mortality or growth inhibition) at an application rate of 200 ppm: • P2, P3, P4, P5, P6, P7, P8, P14, P15, P16, P17, P18, P19, P20, P21, P22, P23, P24, P25, P27, P28, P29, P30, P31, P32, P33, P34, P35

[2] = system: Euschistus heros (Neotropical Brown Stink Bug); assay: Example B2: Euschistus heros, soybean leaves sprayed, N2 nymphs; details: 120 h, application rate of 200 ppm, 5 days after infestation, in comparison to untreated samples, read-out: effect in at least one of the two categories (mortality or growth inhibition)
Description: Example B2: Euschistus heros (Neotropical Brown Stink Bug)
Soybean leaves on agar in 24-well microtiter plates were sprayed with aqueous test solutions prepared from 10′000 ppm DMSO stock solutions. After drying the leaves were infested with N2 nymphs. The samples were assessed for mortality and growth inhibition in comparison to untreated samples 5 days after infestation.
The following compounds gave an effect of at least 80% in at least one of the two categories (mortality or growth inhibition) at an application rate of 200 ppm: • P1, P2, P3, P7, P11, P12, P16, P17, P18, P22, P25, P29, P32, P33, P37, P38

[3] = system: Plutella xylostella (Diamond Back Moth); assay: Example B5: Plutella xylostella, artificial diet in 24-well plates, eggs; details: 192 h, application rate of 200 ppm, 8 days after infestation, in comparison to untreated samples, read-out: effect in at least one of the two categories (mortality or growth inhibition)
Description: Example B5: Plutella xylostella (Diamond Back Moth)
24-well microtiter plates with artificial diet were treated with aqueous test solutions prepared from 10′000 ppm DMSO stock solutions by pipetting. After drying, Plutella eggs were pipetted through a plastic stencil onto a gel blotting paper and the plate was closed with it. The samples were assessed for mortality and growth inhibition in comparison to untreated samples 8 days after infestation.
The following compounds gave an effect of at least 80% in at least one of the two categories (mortality or growth inhibition) at an application rate of 200 ppm: • P1, P2, P3, P4, P5, P7, P8, P9, P14, P15, P16, P17, P18, P21, P22, P23, P24, P25, P27, P28, P29, P30, P31, P32, P33, P34, P35, P36

[4] = system: Myzus persicae (Green Peach Aphid); assay: Example B6: Myzus persicae feeding/contact activity, sunflower leaf discs; details: foliar, 144 h, application rate of 200 ppm, aphid population of mixed ages, 6 days after infestation
Description: Example B6: Myzus persicae (Green Peach Aphid): Feeding/Contact Activity
(§1) Sunflower leaf discs were placed onto agar in a 24-well microtiter plate and sprayed with aqueous test solutions prepared from 10′000 ppm DMSO stock solutions. After drying, the leaf discs were infested with an aphid population of mixed ages. The samples were assessed for mortality 6 days after infestation.

[5] = system: Myzus persicae (Green Peach Aphid); assay: Example B8: Myzus persicae intrinsic activity, sucrose solution under Parafilm, 24-well; details: 120 h, test rate of 12 ppm, 5 days after infestation
Text: Example B8: Myzus persicae (Green Peach Aphid): Intrinsic Activity
Test compounds prepared from 10′000 ppm DMSO stock solutions were applied by pipette into 24-well microtiter plates and mixed with sucrose solution. The plates were closed with a stretched Parafilm. A plastic stencil with 24 holes was placed onto the plate and infested pea seedlings were placed directly on the Parafilm. The infested plate was closed with a gel blotting paper and another plastic stencil and then turned upside down. The samples were assessed for mortality 5 days after infestation.

[6] = system: Spodoptera littoralis (Egyptian Cotton Leaf Worm); assay: Example B9: Spodoptera littoralis, cotton leaf discs sprayed, L1 larvae; details: foliar, 72 h, application rate of 200 ppm, five L1 larvae, 3 days after infestation, in comparison to untreated samples, read-out: control in at least one of the categories (mortality, anti-feedant effect, or growth inhibition)
Description: Example B9: Spodoptera littoralis (Egyptian Cotton Leaf Worm)
Cotton leaf discs were placed onto agar in 24-well microtiter plates and sprayed with aqueous test solutions prepared from 10′000 ppm DMSO stock solutions. After drying the leaf discs were infested with five L1 larvae. The samples were assessed for mortality, anti-feeding effect, and growth inhibition in comparison to untreated samples 3 days after infestation. Control of Spodoptera littoralis by a test sample is given when at least one of the categories mortality, anti-feedant effect, and growth inhibition is higher than the untreated sample.

[7] = system: Thrips tabaci (Onion thrips); assay: Example B12: Thrips tabaci feeding/contact activity, sunflower leaf discs; details: foliar, 144 h, application rate of 200 ppm, thrips population of mixed ages, 6 days after infestation
Description: Example B12: Thrips tabaci (Onion thrips): Feeding/Contact Activity
as §1, with “on” for “onto”, “in” for “in a”, “plates” for “plate”, “drying” for “drying,”, “a thrips” for “an aphid”

[8] = system: Myzus persicae (Green Peach Aphid); assay: Example B13: Myzus persicae, sucrose solution under Parafilm, 96-well; details: 120 h, application rate of 50 ppm, 5 days after infestation
Text: Example B13: Myzus persicae (Green Peach Aphid)
Test compounds prepared from 10′000 ppm DMSO stock solutions were applied by a liquid handling robot into 96-well microtiter plates and mixed with a sucrose solution. Parafilm was stretched over the 96-well microtiter plate and a plastic stencil with 96 holes was placed onto the plate. Aphids were sieved into the wells directly onto the Parafilm. The infested plates were closed with a gel blotting card and a second plastic stencil and then turned upside down. The samples were assessed for mortality 5 days after infestation.

[9] = system: Plutella xylostella (Diamondback Moth); assay: Example B14: Plutella xylostella, artificial diet in 96-well plates, eggs; details: 216 h, application rate of 500 ppm, 9 days after infestation
Description: Example B14: Plutella xylostella (Diamondback Moth)
96-well microtiter plates containing artificial diet were treated with aqueous test solutions, prepared from 10′000 ppm DMSO stock solutions, by a liquid handling robot. After drying, eggs (˜30 per well) were infested onto a netted lid which was suspended above the diet. The eggs hatch and L1 larvae move down to the diet. The samples were assessed for mortality 9 days after infestation.
The following compounds gave an effect of at least 80% average mortality at an application rate of 500 ppm: • P2, P3, P5, P6, P7, P9, P15, P16, P17, P18, P20, P22, P24, P25, P30, P31, P32, P33, P38.

[10] = system: Frankliniella occidentalis (Western Flower Thrips); assay: Example B3: Frankliniella occidentalis feeding/contact activity, sunflower leaf discs; details: foliar, 168 h, application rate of 200 ppm, population of mixed ages, 7 days after infestation
Description: Example B3: Frankliniella occidentalis (Western Flower Thrips):Feeding/Contact Activity
Sunflower leaf discs were placed on agar in 24-well microtiter plates and sprayed with aqueous test solutions prepared from […] stock solutions. After drying the leaf discs were infested with a Frankliniella population of mixed ages. The samples were assessed for mortality 7 days after infestation.

[11] = system: Chilo suppressalis (Striped Rice Stemborer); assay: Example B4: Chilo suppressalis, artificial diet, L2 larvae; details: 144 h, application rate of 200 ppm, 6 days after infestation, in comparison to untreated samples, read-out: control in at least one of the categories (mortality, anti-feedant effect, or growth inhibition)
Description: Example B4: Chilo suppressalis (Striped Rice Stemborer)
24-well microtiter plates with artificial diet were treated with aqueous test solutions prepared from 10′000 ppm DMSO stock solutions by pipetting. After drying, the plates were infested with L2 larvae (6-8 per well). The samples were assessed for mortality, anti-feeding effect, and growth inhibition in comparison to untreated samples 6 days after infestation. Control of Chilo suppressalis by a test sample is given when at least one of the categories mortality, anti-feedant effect, and growth inhibition is higher than the untreated sample.

[12] = system: Myzus persicae (Green Peach Aphid); assay: Example B7: Myzus persicae systemic activity, pea seedling roots in test solution; details: 144 h, test rate of 24 ppm, 6 days after placing seedlings into test solutions
Description: Example B7: Myzus persicae (Green Peach Aphid): Systemic Activity
Roots of pea seedlings infested with an aphid population of mixed ages were placed directly into aqueous test solutions prepared from 10′000 DMSO stock solutions. The samples were assessed for mortality 6 days after placing seedlings into test solutions.

CC(c1nc(N=C(c2ccccc2)c2ccccc2)nn1-c1ncccn1)N(C)C(=O)c1cc(C(F)(F)F)cc(C(F)(F)F)c1 (stereo not shown) [Compound P22, N-[1-[5-(benzhydrylideneamino)-2-pyrimidin-2-yl-1,2,4-triazol-3-yl]ethyl]-N-methyl-3,5-bis(trifluoromethyl)benzamide]
≥ 80%: percent effect (mortality or growth inhibition) at 200 ppm [1] | percent effect (mortality or growth inhibition) at 200 ppm [2] | percent effect (mortality or growth inhibition) at 200 ppm [3] | mortality at 200 ppm [4] | mortality at 12 ppm [5] | percent control (mortality, anti-feedant effect or growth inhibition) at 200 ppm [6] | mortality at 200 ppm [7] | mortality at 50 ppm [8] | mortality at 500 ppm [9]

CNc1nc(C(C)N(C)C(=O)c2cc(C(F)(F)F)cc(C(F)(F)F)c2)n(-c2ncccn2)n1 (stereo not shown) [Compound P18, N-methyl-N-[1-[5-(methylamino)-2-pyrimidin-2-yl-1,2,4-triazol-3-yl]ethyl]-3,5-bis(trifluoromethyl) benzamide]
≥ 80%: percent effect (mortality or growth inhibition) at 200 ppm [1] | percent effect (mortality or growth inhibition) at 200 ppm [2] | percent effect (mortality or growth inhibition) at 200 ppm [3] | mortality at 200 ppm [4] | mortality at 12 ppm [5] | percent control (mortality, anti-feedant effect or growth inhibition) at 200 ppm [6] | mortality at 200 ppm [7] | mortality at 50 ppm [8] | mortality at 500 ppm [9]

CC(c1nc(N)nn1-c1ncccn1)N(C)C(=O)c1cc(C(F)(F)F)cc(C(F)(F)F)c1 (stereo not shown) [Compound P7, N-[1-(5-amino-2-pyrimidin-2-yl-1,2,4-triazol-3-yl)ethyl]-N-methyl-3,5-bis(trifluoromethyl)benzamide]
≥ 80%: percent effect (mortality or growth inhibition) at 200 ppm [1] | percent effect (mortality or growth inhibition) at 200 ppm [2] | percent effect (mortality or growth inhibition) at 200 ppm [3] | mortality at 200 ppm [4] | mortality at 12 ppm [5] | percent control (mortality, anti-feedant effect or growth inhibition) at 200 ppm [6] | mortality at 200 ppm [7] | mortality at 50 ppm [8] | mortality at 500 ppm [9]

CNC(=O)c1nc(C(C)N(C)C(=O)c2cc(C(F)(F)F)cc(C(F)(F)F)c2)n(-c2ncccn2)n1 (stereo not shown) [Compound P12, 5-[1-[[3.5-bis(trifluoromethyl)benzoyl]-methyl-amino]ethyl]-N-methyl-1-pyrimidin-2-yl-1,2,4-triazole-3-carboxamide]
≥ 80%: percent effect (mortality or growth inhibition) at 200 ppm [2] | mortality at 200 ppm [10] | percent control (mortality, anti-feedant effect or growth inhibition) at 200 ppm [11] | mortality at 200 ppm [4] | mortality at 24 ppm [12] | mortality at 12 ppm [5] | mortality at 50 ppm [8]

CC(c1nc(N(C)C)nn1-c1ncccn1)N(C)C(=O)c1cc(C(F)(F)F)cc(C(F)(F)F)c1 (stereo not shown) [Compound P16, N-[1-[5-(dimethylamino)-2-pyrimidin-2-yl-1,2,4-triazol-3-yl]ethyl]-N-methyl-3,5-bis(trifluoromethyl) benzamide]
≥ 80%: percent effect (mortality or growth inhibition) at 200 ppm [1] | percent effect (mortality or growth inhibition) at 200 ppm [2] | mortality at 200 ppm [10] | percent effect (mortality or growth inhibition) at 200 ppm [3] | mortality at 200 ppm [4] | mortality at 24 ppm [12] | mortality at 12 ppm [5] | percent control (mortality, anti-feedant effect or growth inhibition) at 200 ppm [6] | mortality at 50 ppm [8] | mortality at 500 ppm [9]

CC(c1nc(I)nn1-c1ncccn1)N(CC1CC1)C(=O)c1cc(C(F)(F)F)cc(C(F)(F)F)c1 (stereo not shown) [Compound P5, N-(cyclopropylmethyl)-N-[1-(5-iodo-2-pyrimidin-2-yl-1,2,4-triazol-3-yl)ethyl]-3,5-bis(trifluoromethyl) benzamide]
≥ 80%: percent effect (mortality or growth inhibition) at 200 ppm [1] | percent effect (mortality or growth inhibition) at 200 ppm [3] | percent control (mortality, anti-feedant effect or growth inhibition) at 200 ppm [6] | mortality at 200 ppm [7] | mortality at 50 ppm [8] | mortality at 500 ppm [9]

CC(NC(=O)c1cc(C(F)(F)F)cc(C(F)(F)F)c1)c1nc(S(C)(=O)=O)nn1-c1ncccn1 (stereo not shown) [Compound P21, N-[1-(5-methylsulfonyl-2-pyrimidin-2-yl-1,2,4-triazol-3-yl)ethyl]-3,5-bis(trifluoromethyl) benzamide]
≥ 80%: percent effect (mortality or growth inhibition) at 200 ppm [1] | percent control (mortality, anti-feedant effect or growth inhibition) at 200 ppm [11] | percent effect (mortality or growth inhibition) at 200 ppm [3] | mortality at 200 ppm [4] | mortality at 24 ppm [12] | mortality at 12 ppm [5] | percent control (mortality, anti-feedant effect or growth inhibition) at 200 ppm [6] | mortality at 50 ppm [8]
